According to patent US10167292B2, “Benzodiazepines as bromodomain inhibitors” (Catalyst Therapeutics Pty Ltd, priority 2015, dated 2019):

How the values were obtained:
BRD-2 (Domain 1) = BRD-2 (Domain 1) (Homo sapiens (Human), UniProt P25440); assay: AlphaScreen BRD binding assay, BRD-2 (Domain 1); details: acetyl-histone H4 peptide 2.5 nM, protein 80 nM
Procedure: (§1) Biological Characterization Assay Conditions Binding Assay
(§2) AlphaScreen streptavidin donor beads and AlphaScreen nickel chelate acceptor beads were added to a final concentration of 10 ug/mL each and allowed to incubate in a darkened environment for 1 h at RT. Plates were read on an EnVision plate reader (Perkin Elmer) and IC50's calculated using a four parameter non-linear curve fit.

BRD-3 (Domain 1) = BRD-3 (Domain 1) (Homo sapiens (Human), UniProt Q15059); assay: AlphaScreen BRD binding assay, BRD-3 (Domain 1); details: acetyl-histone H4 peptide 2.5 nM, protein 80 nM
Sequence of BRD-3 (Domain 1) (Q15059 34-140): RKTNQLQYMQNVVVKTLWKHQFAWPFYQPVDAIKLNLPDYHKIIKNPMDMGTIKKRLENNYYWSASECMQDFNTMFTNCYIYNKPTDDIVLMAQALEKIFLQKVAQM
Procedure: as §1
BRD binding and inhibition was assessed by measuring the interaction of biotinylated acetyl-histone H4 peptide (Anaspec #64989) with the BRD target protein utilising AlphaScreen® technology (Perkin Elmer). In a white 384-well low volume plate (Greiner #784076), 100 nL of compound series in DMSO (0.5% final concentration) was added to the BRD target protein (80 nM final). After 30 min incubation at RT, H4 peptide was added to a final concentration of 2.5 nM. AlphaScreen streptavidin donor beads and AlphaScreen nickel chelate acceptor beads were added to a final concentration of 10 ug/mL each and allowed to incubate in a darkened environment for 1 h at RT. Plates were read on an EnVision plate reader (Perkin Elmer) and IC50's calculated using a four parameter non-linear curve fit.
These conditions are identical for all BRDs screened except BRD2D2 which uses 160 nM protein and 1.25 nM peptide.

MV4; 11 = assay: Cell proliferation assay (CellTiter-Glo), MV4;11; assay type: cell-based; details: Homo sapiens, MV4;11 cells, 72 h
Procedure: (§3) The cells were prepared in the required fashion (suspension or adherent). The cells were initially washed once in the culture medium that they would be finally treated in. Following this 10 ml of the test medium was added and the cells. The mixture was pipetted gently several times.
(§4) The cells were counted and then the volume was spun down to the volume necessary for the total number of cells needed. The cells were then resuspended in the appropriate test medium to the desired concentration. In general, the final concentration of non-adherent cells was 2×10^5 cells/ml i.e. 10,000 cells per 50 μ1. Once the desired concentration had been reached, 50 µl of the cells were added to the appropriate wells and the cells were incubated for 72 h at 37° C.
(§5) CellTiter-Glo Luminescent Assay (Kit G7571—See Promega's Instruction Manual for Additional Details):
(§6) Both reagents were pre-warmed to RT. The buffer was thawed in a 37° C. water bath until it had just completely thawed. It was then left on a bench at RT for at least 30 min.
(§7) Following this the substrate and buffer were mixed together. To ensure that the substrate was dissolved, the mixture was inverted several times.
(§8) The cell culture plates were removed from the incubator and were then allowed to adjust to RT for at least 30 min.
(§9) Afterwards 40 μL of the reagent was added to 100 μL of the culture medium. […] The plates were then incubated for 10 min on the bench. The luminescence could then be read using a luminescence plate reader.

HL-60 = assay: Cell proliferation assay (CellTiter-Glo), HL-60; assay type: cell-based; details: Homo sapiens, HL-60 cells, 72 h
Procedure: as §3, §4, §5, §6, §7, §8, §9

BRD-2 (Domain 2) = BRD-2 (Domain 2) (Homo sapiens (Human), UniProt P25440); assay: AlphaScreen BRD binding assay, BRD-2 (Domain 2); details: 160 nM protein and 1.25 nM peptide
Sequence of BRD-2 (Domain 2) (P25440 344-453): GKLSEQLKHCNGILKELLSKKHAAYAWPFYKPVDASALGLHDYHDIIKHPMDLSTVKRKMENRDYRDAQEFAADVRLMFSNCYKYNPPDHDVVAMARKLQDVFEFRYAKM
Procedure: as §1, §2

BRD-4 (Domain 1) = BRD-4 (Domain 1) (Homo sapiens (Human), UniProt O60885); assay: AlphaScreen BRD binding assay, BRD-4 (Domain 1); details: acetyl-histone H4 peptide 2.5 nM, protein 80 nM
Procedure: as §1, §2

BRD-4 (Domain 2) = BRD-4 (Domain 2) (Homo sapiens (Human), UniProt O60885); assay: AlphaScreen BRD binding assay, BRD-4 (Domain 2); details: acetyl-histone H4 peptide 2.5 nM, protein 80 nM
Procedure: as §1, §2

Sequence of BRD-2 (Domain 1) (P25440 74-180): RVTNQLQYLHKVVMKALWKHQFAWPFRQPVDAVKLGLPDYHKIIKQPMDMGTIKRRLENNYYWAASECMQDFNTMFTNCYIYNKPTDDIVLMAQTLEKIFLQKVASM

IC50 (BRD-2 (Domain 1)): < 100 nM
IC50 (BRD-3 (Domain 1)): < 100 nM
IC50 (MV4; 11): 1000 to 5000 nM
IC50 (HL-60): > 5000 nM
IC50 (BRD-2 (Domain 2)): < 100 nM
IC50 (BRD-4 (Domain 1)): < 100 nM
IC50 (BRD-4 (Domain 2)): < 100 nM
SMILES: Cc1nnn2c1-c1ccc(C(=O)NS(=O)(=O)c3ccccc3)cc1N(c1ccc(Cl)cc1)CC2 [Example 40, 7-(4-chlorophenyl)-1-methyl-N-(phenylsulfonyl)-6,7-dihydro-5H-benzo[f][1,2,3]triazolo[1,5-d][1,4]diazepine-9-carboxamide]
